The source of these data is PubChem BioAssay (NCI).

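96-well plates; 48 h exposure; 5 concentrations. Endpoints by linear interpolation between flanking doses. Not reached: highest tested concentration assigned. GI50: concentration for 50% inhibition of growth. At the TGI there is no net growth.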

Experiment in all cases: inhibition of tumour cell growth, NCI panel, 48 h
Assay [1] has as its system K-562 leukemia.
In assay [2] the test system is HCC-2998 colon.
In assay [3] the test system is T-47D breast.
Assay [4] deals with HL-60(TB) leukemia.
In assay [5] the test system is NCI-H226 lung.
Assay [6] deals with NCI-H460 lung.
The subject of assay [7] is NCI-H522 lung.
Assay [8] has as its system SK-MEL-5 melanoma.
For assay [9], the system named is COLO 205 colon.
The subject of assay [10] is MDA-MB-435.

For `Cn1cc(-c2cc(-c3cn(C)c4ccc(Cl)cc34)[nH]n2)c2cc(Cl)ccc21`, the GI50 in [1] is 2.78 µM; in assay [2] it was 1.71 µM; in assay [3], 4.06 µM; in [4] it was 4.45 µM; in assay [5] it was 5.29 µM; in assay [6] it was 2.35 µM. Also, the GI50 is 1.75 µM in assay [7], 1.79 µM in assay [8] and 2.22 µM in [9]. Besides, the TGI was 5.98 µM in assay [1]; 3.84 µM in assay [2]; 20.7 µM in [3]; 18.1 µM in assay [4]; over 100 µM in assay [5]; 5.47 µM in [6]. Also, the TGI worked out at 3.84 µM in assay [7], 3.6 µM in assay [8] and 5.35 µM in [9].

Consider `COc1ccc2c(c1)CN([C@@H](C)[C@H]1CC[C@H]3[C@@H]4CC[C@H]5C[C@@H](O)CC[C@]5(C)[C@H]4CC[C@]13C)CO2`, for which the TGI was found to be 2.37 µM in [1]; 3.01 µM in assay [2]; 18.3 µM in assay [3]; 5.91 µM in assay [4]; 24.3 µM in assay [5]; 2.47 µM in [6]. Besides, the TGI in [10] was found to be 3.48 µM; in assay [7], 4.21 µM; in assay [8] it was 3.28 µM; in [9], 3.85 µM.

For the compound `CC(NC(=O)Cc1ccc(C(F)(F)P(=O)(OCc2ccc([N+](=O)[O-])o2)N(C)CCCCCl)cc1)c1ccc(OCC2CCCCC2)c(C(N)=O)c1` (stereo not given), the GI50 in [1] is 4.5 µM; in assay [2] it was 3.25 µM; in assay [3], 4.33 µM; in [4], 1.89 µM; in assay [5] it was 5.52 µM; in assay [6] it was 8.26 µM. For the same compound, the GI50 in assay [10] is 2.69 µM; in assay [7], 3.86 µM; in [8] it was 6.77 µM; in assay [9], 3.94 µM. Also, the TGI was 17.9 µM in assay [1]; 9.11 µM in assay [2]; 15 µM in assay [3]; 4.72 µM in assay [4]; 15.1 µM in [5]; 26.2 µM in [6]. For the same compound, the TGI stood at 6.73 µM in assay [10], 10.2 µM in [7], 15.5 µM in assay [8] and 11.2 µM in [9].

For the compound `CC(C)(C)NCC(O)COc1c(Br)c(Br)c(Br)c2c1OC(C)(C)C2` (stereo not given), the GI50 is 1.54 µM in assay [1]; 1.65 µM in assay [3]; 1.53 µM in [4]; 1.77 µM in [6]; 2.02 µM in assay [10]; 1.99 µM in assay [7]. In addition, the GI50 in assay [8] and in [9] was 1.55 µM throughout. Also, the TGI in assay [1] worked out at 2.94 µM; in assay [3], 3.59 µM; in assay [4], 3.1 µM; in [6] it was 3.28 µM; in assay [10] it was 3.96 µM; in assay [7] it was 3.81 µM. Moreover, the TGI in assay [8] was found to be 2.89 µM; in assay [9], 3.2 µM.

Regarding `CCCC1(CN2c3ccccc3Sc3ccc(Cl)cc32)CCN(CC)C1` (stereo not given), the GI50 in assay [2] was 1.68 µM; in [3], 2.21 µM; in assay [5], 1.74 µM; in [6], 1.94 µM; in assay [10], 1.79 µM; in assay [7], 1.9 µM. Moreover, the GI50 is 1.62 µM in assay [8] and 1.64 µM in assay [9]. The TGI amounted to 3.27 µM in assay [2]; 5.03 µM in [3]; 3.76 µM in [5]; 3.67 µM in assay [6]; 3.47 µM in assay [10]; 3.64 µM in assay [7]. Moreover, the TGI in assay [8] turned out to be 3 µM; in [9] it was 3.3 µM.

In the case of `CCCCCCCCCc1ccc(OCCOCCOCCOCCOCCOCCOCCOCCOCCO)cc1`, the GI50 is 0.332 µM in assay [1]; 0.75 µM in assay [2]; 0.224 µM in assay [3]; 0.31 µM in assay [4]; 0.561 µM in assay [5]; 0.301 µM in assay [6]. Also, the GI50 in assay [10] is 0.832 µM; in [7], 0.302 µM; in [8], 0.136 µM; in assay [9] it was 0.243 µM. Moreover, the TGI amounted to 7.27 µM in assay [1]; 1.85 µM in assay [2]; 2.75 µM in assay [3]; 1.37 µM in [4]; 1.77 µM in assay [5]; 1.65 µM in assay [6]. For the same compound, the TGI is 3.05 µM in assay [10], 1.39 µM in assay [7], 0.643 µM in [8] and 0.829 µM in [9].

For the compound `C=C1C(=O)O[C@H]2[C@H]1CC/C(COC(=O)N[C@H]1C[C@H](O[C@H]3C[C@](O)(C(=O)CO)Cc4c(O)c5c(c(O)c43)C(=O)c3c(OC)cccc3C5=O)O[C@@H](C)[C@H]1O)=C\CC[C@@]1(C)O[C@@H]21`, the GI50 in [1] was 1.58 µM; in assay [2], 11.8 µM; in assay [3], 2.27 µM; in [5], 5.33 µM; in [6], 9.02 µM; in assay [10], 6.31 µM. Further, the GI50 was 0.772 µM in assay [7], 8.1 µM in assay [8] and 1.75 µM in assay [9]. In addition, the TGI in assay [1] is 11.4 µM; in assay [2] it was 28.7 µM; in assay [3], 10.4 µM; in assay [5], 12.6 µM; in assay [6], over 50 µM; in assay [10], 22.2 µM. In addition, the TGI in assay [7] worked out at 1.68 µM; in assay [8], 18.1 µM; in [9], 6.98 µM.

Take `O=C1c2cccnc2-c2nc(-c3cccnc3)cc3c2c1nc1ccccc13`: the GI50 was 1.67 µM in [1]; 10.4 µM in assay [3]; 2.11 µM in [4]; 2.02 µM in assay [5]; 2.16 µM in [6]; 5.58 µM in assay [10]. Further, the GI50 in assay [7] was 1.74 µM; in [8], 1.55 µM; in assay [9], 3.33 µM. Further, the TGI in assay [1] was over 100 µM; in assay [3], over 65.2 µM; in [4] it was over 100 µM; in assay [5] it was 5.53 µM; in assay [10], 32 µM; in assay [7] it was 4.35 µM. Further, the TGI stood at 3.46 µM in assay [8] and 10.9 µM in assay [9].
